Reference: US7999147B2, “Reduction of odors in absorbent articles” (First Quality Products, Inc., priority 2004, dated 2011)
Where “and” joins values, the source holds several entries; their conditions need not be identical. Equal values may be shown once.

Legend:
ammonia [1] = test: Ammonia concentration from urine in absorbent structures sprayed with additive solution (gas dosimeter tubes); parameters: species or system human; details: 37° C.
ammonia [2] = test: Ammonia concentration from urine in absorbent structures containing additive-treated SAP (gas dosimeter tubes); parameters: species or system human; details: 1.5 g SAP treated with FORESTALL (0.135 g per 13.5 g SAP) + 4.5 g fluff pulp, 37° C., donors X, Y
Description: The following is a detailed description of the test method to measure ammonia concentrations. A series of absorbent structures are prepared according to the following. The base absorbent structure is fluff pulp or a combination of fluff and SAP. Then, for example, an aqueous solution is prepared containing a known quantity of a potential treatment for ammonia malodor. An equal quantity of the solution is sprayed onto all but one of the series of absorbent structures. The spraying is applied as uniformly as possible. One absorbent structure is sprayed with an equal volume of water and is the control. All absorbent structures are left out several hours to dry. Each of the absorbent structures is then transferred to Nalgene® Brand 125-ml, narrow-mouth polycarbonate Erlenmeyer flasks. […]
Straughan® Gastec® ammonia gas dosimeter tubes, grade 3D, are broken off and thereby opened at one end. […] Donors collect a suitable quantity of fresh urine specimen in disposable collection cups marked with volume indications. […]
The flasks are then placed into a water bath set at 37° C. […] Based on discrete markings on the detector tube, the time-weighted average concentration of ammonia measured in parts per million-hour are read from the scale and recorded. […] Readings of ammonia concentrations are read up to 72 hours time or less if any of the concentrations exceed the maximum limit of the detection tube's range. […]

[3] = Water solubility of the additive; type: physicochemical
Description: Four absorbent structures are made according to Example 4 except onto three structures, 4.5 ml of an aqueous solution containing 1% M-Quat Dimer 18 is sprayed. To dissolve the additive in water, the temperature needed to be raised to about 45-60° C. M-Quat Dimer 18 is the tradename for 2-hydroxypropylene-bis-1,3-(dimethylstearylammonium chloride). […] This chemical is manufactured by BASF Corporation.

[4] = 4.5 ml of 1% M-Quat Dimer 18 sprayed on fluff pulp + SAP, urine, donors X, Y

## 1-propanaminium, 3-amino-N-ethyl-N,N-dimethyl-N-soya acyl derivative, ethyl sulfate
Ammonia [1]; 4.5 ml of 1% 1-propanaminium soya acyl derivative ethyl sulfate sprayed on fluff pulp + SAP, urine, donor Y, 56 hour
  Ammonia Concentration ppm-hour 56 hour reading: 25 ppm-hour
Ammonia [1]; 4.5 ml of 1% 1-propanaminium soya acyl derivative ethyl sulfate sprayed on fluff pulp + SAP, urine, donor Z
  Ammonia Concentration ppm-hour 72 hour reading: 0 ppm-hour
Ammonia [1]; 4.5 ml of 1% 1-propanaminium soya acyl derivative ethyl sulfate sprayed on fluff pulp + SAP, urine, donors Y, Z
  Ammonia Concentration ppm-hour 8 hour reading: 0 ppm-hour
Ammonia [1]; 4.5 ml of 1% 1-propanaminium soya acyl derivative ethyl sulfate sprayed on fluff pulp + SAP, urine, donors Y, Z, 24 hour
  Ammonia Concentration ppm-hour 24 hour reading: 0 ppm-hour

## 4-ethyl-4-soya morpholinium ethyl sulfate [FORESTALL]
Ammonia [1]; 4.5 ml of 1% FORESTALL sprayed on 4.5 g fluff pulp + 1.5 g SAP, fresh urine, donors X, Y, Z
  Ammonia Concentration ppm-hour 8 hour reading: 0 ppm-hour
Ammonia [2]
  Ammonia Concentration ppm-hour 32 hour reading: 25 ppm-hour and 30 ppm-hour

## CCCCCCCCCCCCCCCCCC[N+](C)(C)CC(O)C[N+](C)(C)CCCCCCCCCCCCCCCCCC.[Cl-].[Cl-] [M-Quat Dimer 18, 2-hydroxypropylene-bis-1,3-(dimethylstearylammonium chloride)]
Ammonia [1]; [4]
  Ammonia Concentration ppm-hour 8 hour reading: 0 ppm-hour
  Ammonia Concentration ppm-hour 72 hour reading: 250 ppm-hour and 470 ppm-hour and 280 ppm-hour and 400 ppm-hour and 425 ppm-hour
Ammonia [1]; 4.5 ml of 1% M-Quat Dimer 18 sprayed on fluff pulp + SAP, urine, donors X, Y, 32 hour
  Ammonia Concentration ppm-hour 32 hour reading: 12 ppm-hour and 20 ppm-hour and 23 ppm-hour
Ammonia [1]; 4.5 ml of 1% M-Quat Dimer 18 sprayed on fluff pulp + SAP, urine, donors X, Y, 48 hour
  Ammonia Concentration ppm-hour 48 hour reading: 25 ppm-hour and 30 ppm-hour and 50 ppm-hour
[3]; 1% aqueous solution
  Temperature needed to dissolve the additive in water: 45-60 °C
[3]; 37° C.
  Water solubility at 37° C.: not water soluble at 37 °C

## ethylbis(hydroxyethyl)tallowalkyl ammonium ethyl sulfate
Ammonia [1]; 4.5 ml of 1% ethylbis(hydroxyethyl)tallowalkyl ammonium ethyl sulfate sprayed on fluff pulp + SAP, urine, donors Z, X
  Ammonia Concentration ppm-hour 8 hour reading: 0 ppm-hour

## hydrogenated tallowalkyl(2-ethylhexyl)dimethylammonium methyl sulfate [ARQUAD HTL8-MS]
Ammonia [1]; 4.5 ml of 1% ARQUAD HTL8-MS sprayed on fluff pulp + SAP, urine, donors X, Y
  Ammonia Concentration ppm-hour 8 hour reading: 0 ppm-hour
